Results published in patent US20110245323A1, “RIG-Like Helicase Innate Immunity Inhibits VEGF-Induced Tissue Responses” (Yale University, priority 2006, published 2011).
“Also recorded” adds a separate entry of the source.

How the values were obtained:
Format in all cases: in vivo, mouse
[1] = system: IFNAR1; assay: Poly(I:C) regulation of VEGF responses in IFNAR1 null VEGF Tg+ mice
Excerpt: (§1) TLR3^−/−-mice were a gift from Dr. Richard A. Flavell (Yale University), MAVS null mice were a gift from Dr Zijian J. Chen (U of Texas Southwestern) (Sun et al., 2006, Immunity 24:633-642), double stranded RNA-dependent protein kinase null mutant mice (PKR^−/−) were a gift from Dr. Bryan R. G. Williams (Cleveland Clinic Foundation) (Yang et al., 1995, Embo J 14:6095-6106) and IFNAR1 null mice were obtained from Dr. Richard Enelow (Dartmouth). These mice were bred with the VEGF Tg+ mice to generate transgenic mice with wild type (+/+) or null (−/−) TLR3, MAVS, PKR or IFNAR1 loci. Thus, in each given experiment, the effects in transgene negative (Tg−) and transgenic (Tg+) mice with WT and null TLR3, MAVS, PKR or IFNAR1 loci were compared.
To define the effects of Poly(I:C) a number of protocols were employed. In most experiments, a pretreatment-2 week protocol was employed. In these experiments, WT and Tg+ mice were treated with Poly(I:C) (30 μg in 50 lambda unless otherwise indicated; Amersham Biosciences, N.J.) or vehicle control via nasal aspiration and transgene activation was accomplished via the administration of dox (0.5 mg/ml) in the animal's drinking water 24 hours later. The Poly(I:C) was administered every other day and the dox was administered continuously for up to 2 weeks. […]

[2] = system: CC10-rtTA-VEGF165 transgenic mice; assay: Lung tissue inflammation, histologic analysis; conditions: Tg+ mice, pretreatment, vs vehicle
Procedure: (§2) The lungs were removed en bloc as described elsewhere herein, inflated at 25 cm pressure with PBS containing 0.5% low melting point agarose gel, fixed in Streck solution (Streck Laboratories, La Vista, Nebr.), embedded in paraffin, sectioned and stained. Hematoxylin and eosin and PAS stains were performed in the Research Histology Laboratory of the Department of Pathology at the Yale University School of Medicine. Pulmonary hemorrhage was evaluated by quantitating BAL red blood cell number with a Coulter counter (Beckman Coulter).

[3] = system: PKR; assay: Poly(I:C) regulation of VEGF responses in PKR null VEGF Tg+ mice; conditions: angiogenesis and dye extravasation
Excerpt: as §1
(§3) To define the effects of Poly(I:C) a number of protocols were employed. In most experiments, a pretreatment-2 week protocol was employed. In these experiments, WT and Tg+ mice were treated with Poly(I:C) (30 μg in 50 lambda unless otherwise indicated; Amersham Biosciences, N.J.) or vehicle control via nasal aspiration and transgene activation was accomplished via the administration of dox (0.5 mg/ml) in the animal's drinking water 24 hours later. The Poly(I:C) was administered every other day and the dox was administered continuously for up to 2 weeks.

[4] = system: transgenic hVEGF; assay: BAL levels of transgenic VEGF by ELISA; conditions: Tg+ mice, Poly(I:C) vs vehicle; doses <30 μg
Excerpt: WT and CC10-rtTA-VEGF mice were used in these studies. The latter used the Clara cell 10-kDa protein (CC10) promoter and two transgenic constructs to target VEGF to the lung in an externally regulatable fashion. The human (h) VEGF165 transgene in these mice was activated via the administration of doxycycline (dox) as previously described (Lee et al., 2004, Nat Med 10:1095-1103). In the wild type (WT) mice on normal or dox water and the Tg+ mice on normal water, hVEGF levels in bronchoalveolar lavage fluids (BAL) were <10 pg/ml. Increased levels of BAL VEGF were noted within 24 hours and steady state levels between 0.5 and 1.2 ng/ml were seen after 1 week of dox administration (FIG. 28).
as §3
ELISA assay kits for VEGF and IL-13 were purchased from R&D Systems (Minneapolis, Minn.).

[5] = system: CC10-rtTA-VEGF165 transgenic mice; assay: VEGF-induced pulmonary hemorrhage in BAL fluids; conditions: Tg+ mice, pretreatment, vs vehicle
Procedure: The CC10-rtTA-VEGF165 transgenic mice used in this study were generated and used as described previously (Lee et al., 2004, Nature Medicine 10:1095-103), which reference is incorporated herein in its entirety. These animals were housed under barrier conditions in the animal facility at Yale University School of Medicine. In these experiments 6-8 week old transgenic (Tg+) animals and their transgene negative littermate controls (Tg−) were randomized to receive water with doxycycline (dox) (0.5 mg/ml) or normal water. Two weeks later they were sacrificed and the VEGF-induced phenotype was evaluated as described below (Lee et al., 2004, Nature Medicine 10:1095-103). […]
Mice were sacrificed using intraperitoneal ketamine/xylazine injection and the trachea was cannulated and perfused with two 0.9 nil aliquots of cold saline. The cellular contents and BAL fluid were separated by centrifugation, the BAL cell number was quantitated and cell differential was assessed. […]
as §2, with “Hematoxylin and eosin and PAS stains were performed in the Research Histology Laboratory of the Department of Pathology at the Yale University School of Medicine.” left out

[6] = system: MAVS; assay: Poly(I:C) effects in MAVS null mice
Excerpt: as §1, §3
OVA sensitization (with alum) and aerosol OVA challenge were undertaken as previously described (Lee et al., 2008, Am J Respir Cell Mol Biol 39:739-746; Lee et al., 2009, J Exp Med 206:1149-1166). The responses in mice that had been treated with Poly(I:C) or vehicle 24 hours before the aerosol challenge were compared. The BAL and tissue responses were evaluated 24 hours after antigen challenge.

[7] = system: CC10-rtTA-VEGF165 transgenic mice; assay: BAL inflammatory cell recovery, VEGF-induced inflammation
Procedure: The CC10-rtTA-VEGF165 transgenic mice used in this study were generated and used as described previously (Lee et al., 2004, Nature Medicine 10:1095-103), which reference is incorporated herein in its entirety. These animals were housed under barrier conditions in the animal facility at Yale University School of Medicine. In these experiments 6-8 week old transgenic (Tg+) animals and their transgene negative littermate controls (Tg−) were randomized to receive water with doxycycline (dox) (0.5 mg/ml) or normal water. Two weeks later they were sacrificed and the VEGF-induced phenotype was evaluated as described below (Lee et al., 2004, Nature Medicine 10:1095-103).
To define the effects of these agents on the tissue responses induced by VEGF, two experimental procedures were used. In the first, a pretreatment protocol was used. In these experiments the noted innate immunity agonist ([…] unless otherwise indicated) or its vehicle control (PBS) were administered intranasally and aspirated into the lungs of randomized Tg+ and Tg− mice starting one day before the Dox water treatment. The doses were administered to the mice every other day during the 2 week doxyxycline (dox) treatment interval.
To determine if the innate immunity agonists altered established VEGF-induced tissue responses, a “post treatment” protocol was used in selected experiments. In these experiments the innate immunity agonist was administered 2 days or 14 days after the doxycycline and VEGF-induced responses were evaluated 2 weeks later.
as §3
Lastly, in selected experiments post-transgene activation protocols were employed. In these experiments dox was administered for 2 days or 2 weeks. The Poly(I:C) was then administered via intranasal aspiration every other day for 2 weeks as disclosed elsewhere herein. In selected pre-treatment and post-transgene activation experiments, unmethylated CpG (CpG-B) (Keck Center, Yale University) was also employed at similar doses. At the end of these intervals, assessments of angiogenesis (anti-CD31 immunohistochemistry), vascular permeability (Evan's blue dye extravasation, wet to dry lung weight measurements, BAL protein concentration), BAL and tissue inflammatory cell infiltration and mucus metaplasia (periodic acid-Schiff (PAS) staining, MUC5AC immunoblotting) were undertaken. In all cases experiments were designed to compare Tg− and Tg+ mice on normal water and Tg− and Tg+ mice on dox water.
Mice were sacrificed using intraperitoneal ketamine/xylazine injection and the trachea was cannulated and perfused with two 0.9 nil aliquots of cold saline. The cellular contents and BAL fluid were separated by centrifugation, the BAL cell number was quantitated and cell differential was assessed. The BAL fluid was stored in aliquots at −80° C.

[8] = Tg+ mice, pretreatment, vs vehicle

**Q.** Which “ability to inhibit VEGF-induced angiogenesis, edema, inflammation and mucin production in Tg+ mice with null mutations of IFNAR1” value ([1]; 30 μg pretreatment, 2 weeks) does the source give for “polyinosinic-polycytidylic acid [Poly(I:C)]” here?
**A.** significantly decreased

**Q.** What about the “ability to inhibit Erk, FAK, Akt and eNOS signaling pathways in mice lacking the IFNAR1 receptor” value ([1]; Tg+ mice lung immunoblot) of the same substance?
**A.** significantly decreased

**Q.** And the “inflammatory cell accumulation in lung tissues” value [2]?
**A.** lower levels of inflammation

**Q.** What about the “effects of Poly(I:C) in PKR null mice” value [3] of the same substance?
**A.** not significantly altered

**Q.** What about the “levels of production of transgenic VEGF in BAL fluids” value [4] of the same substance?
**A.** did not alter

**Q.** And the “VEGF-induced bleeding / hemorrhage in BAL fluids” value [5]?
**A.** significantly decreased

**Q.** What about the “ability to inhibit VEGF-induced angiogenic, edema, inflammatory and mucus responses in MAVS deficient animals” value ([6]; 30 μg pretreatment, 2 weeks) of the same substance?
**A.** abrogated

**Q.** And the “induction of Type I IFNs in mice with null MAVS loci” value ([6]; BAL IFN-α and IFN-β)?
**A.** significantly ameliorated

**Q.** And the “inhibitory effects on OVA-induced inflammation in MAVS null animals” value ([6]; OVA sensitization and challenge)?
**A.** abrogated

**Q.** What about the “VEGF-induced inflammation, delayed administration” value ([7]; Tg+ mice, given 2 days (48 hours) or 14 days after transgene activation with dox) of the same substance?
**A.** significant decrease; also recorded: significant regulation

**Q.** And the “recovery of macrophages, eosinophils and lymphocytes during BAL” value ([7]; Tg+ mice, pretreatment, p<0.05)?
**A.** significantly decreased

**Q.** What about the BAL neutrophil accumulation [7, 8] of the same substance?
**A.** increased

**Q.** And the “total recovery of inflammatory cells during BAL / VEGF-induced inflammation” value [7, 8]?
**A.** markedly decreased; also recorded: inhibited

**Q.** What about the “Total cells (×10^4)” value ([7]; VEGF-induced tissue responses, TLR agonist administration, PBS control 50) of the same substance?
**A.** 22 ×10^4

**Q.** And the “lowest dose with significant alterations of VEGF-induced inflammation” value ([7]; pretreatment)?
**A.** 5 µg

**Q.** What about the “dose with maximal regulation of VEGF-induced inflammation” value ([7]; pretreatment, highest dose tested) of the same substance?
**A.** 30 µg
